From patent US9783511B2, “Carbamate benzoxazine propionic acids and acid derivatives for modulation of RORgamma activity and the treatment of disease” (Merck Sharp & Dohme Corp., priority 2013, dated 2017)

Target: human RORgammaT-Ligand Binding Domain (LBD) (Homo sapiens (Human), UniProt P51449)
Assay: RORγ-Ligand Binding Domain TR-FRET Assay (co-activator peptide SRC1_2 recruitment)
Type: biochemical
Settings: HIS-tagged RORγ-LBD 3 nM, biotinylated SRC1 LXXLL peptide 100 nM, incubated overnight at 4° C., 665 nm/615 nm ratio
Excerpt: Activation of RORgammaT activity can be measured using, e.g., a biochemical TR-FRET assay. In such an assay, interaction of cofactor-derived peptides with human RORgammaT-Ligand Binding Domain (LBD) can be measured.
To identify novel antagonists of RORgammaT, an assay was developed which employs the interaction of RORgammaT with its co-activator peptide SRC1_2. […] The RORγ-Ligand Binding Domain TR-FRET Assay was run according to the following protocol.
HIS-tagged RORγ-LBD protein was recombinantly expressed in Escherichia coli. The RORγ-LBD protein was purified by Ni^2+-affinity resin. Purified protein was then diluted in assay buffer (50 mM Tris pH 7.0, 50 mM KCl, 1 mM EDTA, 0.1 mM DTT, 100 μg/mL bovine serum albumin, delipidated) to obtain a RORγ-LBD final concentration of 3 nM.
Compounds to be tested were injected to the 384-well assay plate using Acoustic Droplet Ejection technology by Echo 550 liquid handler (Labcyte, CA).

Chain of human RORgammaT-Ligand Binding Domain (LBD) (P51449 269-508): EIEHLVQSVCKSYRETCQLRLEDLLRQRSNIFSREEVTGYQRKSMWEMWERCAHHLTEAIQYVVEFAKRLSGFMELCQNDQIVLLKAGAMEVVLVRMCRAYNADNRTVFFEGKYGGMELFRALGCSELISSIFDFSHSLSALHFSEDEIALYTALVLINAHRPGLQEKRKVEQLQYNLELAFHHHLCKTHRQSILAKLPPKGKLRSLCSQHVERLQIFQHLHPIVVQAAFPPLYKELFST

C[C@@H](C[C@H]1CN(S(=O)(=O)c2cn(C(F)F)nc2Cl)c2cc(NC(=O)OC(C)(C)C(F)(F)F)ccc2O1)C(=O)O (single isomer, unassigned) [Example 6DE, (R or S)-3-((S)-4-((3-chloro-1-(difluoromethyl)-1H-pyrazol-4-yl)sulfonyl)-6-((((1,1,1-trifluoro-2-methylpropan-2-yl)oxy)carbonyl)amino)-3,4-dihydro-2H-benzo[b][1,4]oxazin-2-yl)-2-methylpropanoic acid] was tested, and the IC50 was 40.3 nM.

Work on Cc1cncc(S(=O)(=O)N2C[C@H](CCC(=O)O)Oc3ccc(NC(=O)OC(C)(C)C(F)(F)F)cc32)c1 [Example 6BX, 3-[(2S)-4-[(5-methylpyridin-3-yl)sulfonyl]-6-{[(2,2,2-trifluoro-1,1-dimethylethoxy)carbonyl]amino}-3,4-dihydro-2H-1,4-benzoxazin-2-yl]propanoic acid] yielded an IC50 of 32.4 nM.

Compound C[C@H](C[C@H]1CN(S(=O)(=O)c2ccnc(C3CC3)c2)c2cc(NC(=O)OC(C)(C)C(F)(F)F)ccc2O1)C(=O)O (single isomer, unassigned) [Example 6DB, (R or S)-3-((S)-4-((2-cyclopropylpyridin-4-yl)sulfonyl)-6-((((1,1,1-trifluoro-2-methylpropan-2-yl)oxy)carbonyl)amino)-3,4-dihydro-2H-benzo[b][1,4]oxazin-2-yl)-2-methylpropanoic acid] has an IC50 of 11.5 nM.

CC(C)(C[C@H]1CN(S(=O)(=O)c2cncc(C#N)c2)c2cc(NC(=O)OC(C)(C)C(F)(F)F)ccc2O1)C(=O)O [Example 12M, 3-[(2S)-4-[(5-cyanopyridin-3-yl)sulfonyl]-6-{[(2,2,2-trifluoro-1,1-dimethylethoxy)carbonyl]ami-no}-3,4-dihydro-2H-1,4-benzoxazin-2-yl]-2,2-dimethylpropanoic acid] was tested, and the IC50 was 61.8 nM.

CC[C@@H](C[C@H]1CN(S(=O)(=O)c2cn(CC)nc2OCCO)c2cc(NC(=O)OC(C)(C)C(F)(F)F)ccc2O1)C(=O)O (single isomer, unassigned) [Example 10N, (R or S)-2-(((S)-4-((1-ethyl-3-(2-hydroxyethoxy)-1H-pyrazol-4-yl)sulfonyl)-6-((((1,1,1-trifluoro-2-methylpropan-2-yl)oxy)carbonyl)amino)-3,4-dihydro-2H-benzo[b][1,4]oxazin-2-yl)methyl)butanoic acid] was tested, and the IC50 was 67.2 nM.

In the case of C[C@@H](C[C@H]1CN(S(=O)(=O)c2ccnc(C3CC3)c2)c2cc(NC(=O)OC(C)(C)C(F)(F)F)ccc2O1)C(=O)O (single isomer, unassigned) [Example 6DC, (R or S)-3-((S)-4-((2-cyclopropylpyridin-4-yl)sulfonyl)-6-((((1,1,1-trifluoro-2-methylpropan-2-yl)oxy)carbonyl)amino)-3,4-dihydro-2H-benzo[b][1,4]oxazin-2-yl)-2-methylpropanoic acid], the IC50 is reported as 16.2 nM.

COc1cc(S(=O)(=O)N2C[C@H](CCC(=O)O)Oc3ccc(NC(=O)OCC4(C(F)(F)F)CC4)cc32)ccc1F [Example 24A, 3-{(2S)-4-[(4-fluoro-3-methoxyphenyl)sulfonyl]-6-[({[1-(trifluoromethyl)cyclopropyl]methoxy}carbonyl)amino]-3,4-dihydro-2H-1,4-benzoxazin-2-yl}propanoic acid] was tested, and the IC50 was 17.7 nM.

Compound CCOc1nn(CC)cc1S(=O)(=O)N1C[C@H](CCC(=O)O)Oc2c(F)cc(NC(=O)OC(C)(C)C(F)(F)F)cc21 [Example 29D, 3-[(2S)-4-[(3-ethoxy-1-ethyl-1H-pyrazol-4-yl)sulfonyl]-8-fluoro-6-{[(2,2,2-trifluoro-1,1-dimethylethoxy)carbonyl]ami-no}-3,4-dihydro-2H-1,4-benzoxazin-2-yl]propanoic acid] has an IC50 of 7.92 nM.

COc1cc(S(=O)(=O)N2C[C@H]([C@@H]3C[C@@H]3C(=O)O)Oc3ccc(NC(=O)OC(C)(C)C(F)(F)F)cc32)ccc1F (single isomer, unassigned) [Example 22N, (1R,2S or 1R,2R or 1S,2S or 1S,2R)-2-((S)-4-((4-fluoro-3-methoxyphenyl)sulfonyl)-6-((((1,1,1-trifluoro-2-methylpropan-2-yl)oxy)carbonyl)amino)-3,4-dihydro-2H-benzo[b][1,4]oxazin-2-yl)cyclopropanecarboxylic acid] showed an IC50 of 5.87 nM.

With CC(C)(OC(=O)Nc1ccc2c(c1)N(S(=O)(=O)c1cccc(S(F)(F)(F)(F)F)c1)C[C@H](CCC(=O)O)O2)C(F)(F)F [Example 6BD, 3-[(2S)-4-{[3-(pentafluoro-lambda~6~- sulfanyl)phenyl]sulfonyl}-6-{[(2,2,2-trifluoro-1,1-dimethylethoxy)carbonyl]amino}-3,4-dihydro-2H-1,4-benzoxazin-2-yl]propanoic acid] the IC50 was 14.8 nM.

CC(C)(OC(=O)Nc1ccc2c(c1)N(S(=O)(=O)c1ccc(F)c(C(F)(F)F)c1)C[C@H]([C@H](CC(=O)O)C1CC1)O2)C(F)(F)F (single isomer, unassigned) [Example 21C, (S or R)-3-cyclopropyl-3-((S)-4-((4-fluoro-3-(trifluoromethyl)phenyl)sulfonyl)-6-((((1,1,1-trifluoro-2-methylpropan-2-yl)oxy)carbonyl)amino)-3,4-dihydro-2H-benzo[b][1,4]oxazin-2-yl)propanoic acid] showed an IC50 of 30.4 nM.

COc1cc(S(=O)(=O)N2C[C@H](CC(C)(CO)C(=O)O)Oc3ccc(NC(=O)OC(C)(C)C(F)(F)F)cc32)ccc1F (single isomer, unassigned) [Example 18J, (S or R)-3-((S)-4-((4-fluoro-3-methoxyphenyl)sulfonyl)-6-((((1,1,1-trifluoro-2-methylpropan-2-yl)oxy)carbonyl)amino)-3,4-dihydro-2H-benzo[b][1,4]oxazin-2-yl)-2-(hydroxymethyl)-2-methylpropanoic acid] was tested, and the IC50 was 9.13 nM.

Work on COc1cc(S(=O)(=O)N2C[C@H](CC(O)C(=O)O)Oc3ccc(NC(=O)OC(C)(C)C(F)(F)F)cc32)ccc1F (mixture of isomers) [Example 18F, (R and S)-3-((S)-4-((4-fluoro-3-methoxyphenyl)sulfonyl)-6-((((1,1,1-trifluoro-2-methylpropan-2-yl)oxy)carbonyl)amino)-3,4-dihydro-2H-benzo[b][1,4]oxazin-2-yl)-2-hydroxypropanoic acid] yielded an IC50 of 9.39 nM.

In the case of Cc1cc(S(=O)(=O)N2C[C@H](CCC(=O)O)Oc3c(F)cc(NC(=O)OC(C)(C)C(F)(F)F)cc32)ccc1F [Example 29A, 3-[(2S)-8-fluoro-4-[(4-fluoro-3-methylphenyl)sulfonyl]-6-{[(2,2,2-trifluoro-1,1-dimethylethoxy)carbonyl]ami-no}-3,4-dihydro-2H-1,4-benzoxazin-2-yl]propanoic acid], the IC50 is reported as 5.71 nM.

COc1cc(S(=O)(=O)N2C[C@H](C[C@](C)(O)C(=O)O)Oc3ccc(NC(=O)OC(C)(C)C(F)(F)F)cc32)ccc1F (single isomer, unassigned) [Example 18C, (R or S)-3-((S)-4-((4-fluoro-3-methoxyphenyl)sulfonyl)-6-((((1,1,1-trifluoro-2-methylpropan-2-yl)oxy)carbonyl)amino)-3,4-dihydro-2H-benzo[b][1,4]oxazin-2-yl)-2-hydroxy-2-methylpropanoic acid] showed an IC50 of 25 nM.

In the case of CC(C)(OC(=O)Nc1cc(F)c2c(c1)N(S(=O)(=O)c1cncc(C(F)(F)F)c1)C[C@H](CCC(=O)O)O2)C(F)(F)F [Example 29i, 3-[(2S)-8-fluoro-6-{[(2,2,2-trifluoro-1,1-dimethylethoxy)carbonyl]ami-no}-4-{[5-(trifluoromethyl)pyridin-3-yl]sulfonyl}-3,4-dihydro-2H-1,4-benzoxazin-2-yl]propanoic acid], the IC50 is reported as 9.01 nM.

Work on Cc1ccc(S(=O)(=O)N2C[C@H]([C@H]3C[C@H]3C(=O)O)Oc3ccc(NC(=O)OC(C)(C)C(F)(F)F)cc32)cc1 (single isomer, unassigned) [Example 22E, (1S,2S or 1R,2R or 1S,2R or 1R,2S)-2-((S)-4-tosyl-6-((((1,1,1-trifluoro-2-methylpropan-2-yl)oxy)carbonyl)amino)-3,4-dihydro-2H-benzo[b][1,4]oxazin-2-yl)cyclopropanecarboxylic acid] yielded an IC50 of 47.1 nM.

Compound C[C@H](C[C@H]1CN(S(=O)(=O)c2cccc(C3CC3)c2)c2cc(NC(=O)OC(C)(C)C(F)(F)F)ccc2O1)C(=O)O (single isomer, unassigned) [Example 6CW, (R or S)-3-((S)-4-((3-cyclopropylphenyl)sulfonyl)-6-((((1,1,1-trifluoro-2-methylpropan-2-yl)oxy)carbonyl)amino)-3,4-dihydro-2H-benzo[b][1,4]oxazin-2-yl)-2-methylpropanoic acid] has an IC50 of 10.2 nM.

CC(C)(OC(=O)Nc1cc(F)c2c(c1)N(S(=O)(=O)c1ccnc(C(F)(F)F)c1)C[C@H](CCC(=O)O)O2)C(F)(F)F [Example 29H, 3-[(2S)-8-fluoro-6-{[(2,2,2-trifluoro-1,1-dimethylethoxy)carbonyl]ami-no}-4-{[2-(trifluoromethyl)pyridin-4-yl]sulfonyl}-3,4-dihydro-2H-1,4-benzoxazin-2-yl]propanoic acid] was tested, and the IC50 was 10.1 nM.

C[C@@H]1[C@H](CCC(=O)O)Oc2ccc(NC(=O)OC(C)(C)C(F)(F)F)cc2N1S(=O)(=O)c1cccc(C(F)(F)F)c1 [Example 25, 3-((2S,3R)-3-methyl-6-((((1,1,1-trifluoro-2-methylpropan-2-yl)oxy)carbonyl)amino)-4-((3-(trifluoromethyl)phenyl)sulfonyl)-3,4-dihydro-2H-benzo[b][1,4]oxazin-2-yl)propanoic acid] showed an IC50 of 10.1 nM.
